Results taken from ChEMBL document CHEMBL1201862, “PubChem BioAssay data set” (2004).
Active and inactive are the calls of the source.

Experiments:
[1] = molecular target: T1, Sentrin-specific protease 8 (Homo sapiens, UniProt Q96LD8); format: functional
T1 sequence (Q96LD8 whole entry): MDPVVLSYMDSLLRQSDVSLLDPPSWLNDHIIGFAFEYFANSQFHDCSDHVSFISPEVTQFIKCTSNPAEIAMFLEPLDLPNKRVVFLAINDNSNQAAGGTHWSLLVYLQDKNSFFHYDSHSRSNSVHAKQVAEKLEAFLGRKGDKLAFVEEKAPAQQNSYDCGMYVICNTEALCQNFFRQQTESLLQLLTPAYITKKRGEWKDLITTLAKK

[2] = molecular target: T1, Sentrin-specific protease 8; format: functional; remark: listed apart in the source
[3] = bead-based luminescence quenchers, dual-tagged ARNT – biochemical, AlphaScreen, cherry-pick, artefact control for ARNT-TACC3 interaction inhibitor project, dose response (AID 651705); format: functional;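 also: AlphaScreen bead proximity signal that flags compounds interfering with the detection technology; potency reflects signal decrease which marks the compound as an assay artifact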
[4] = inhibition of ARNT PAS-B/TACC3 complex formation – biochemical, AlphaScreen, cherry-picked samples, confirmation (AID 651703); format: functional, Homo sapiens;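 also: His-tagged ARNT PAS-B domain paired with GST-TACC3 E629A dimer coactivator fragment; potency of inhibitors that break up the complex and lower AlphaScreen signal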
[5] = molecular target: Hepatocyte nuclear factor 4-alpha (Homo sapiens, UniProt P41235); format: functional, cell-based;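 also: biochemical luminescence-based dose-response counterscreen measuring inhibition of HNF4 dimerization, run alongside a screen for blockers of ABHD5–perilipin-5 interaction; split luciferase complementation of HNF4 fusion proteins in cell lysate measuring dimerization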
Hepatocyte nuclear factor 4-alpha, sequence (P41235 whole entry, the tested form may be a part): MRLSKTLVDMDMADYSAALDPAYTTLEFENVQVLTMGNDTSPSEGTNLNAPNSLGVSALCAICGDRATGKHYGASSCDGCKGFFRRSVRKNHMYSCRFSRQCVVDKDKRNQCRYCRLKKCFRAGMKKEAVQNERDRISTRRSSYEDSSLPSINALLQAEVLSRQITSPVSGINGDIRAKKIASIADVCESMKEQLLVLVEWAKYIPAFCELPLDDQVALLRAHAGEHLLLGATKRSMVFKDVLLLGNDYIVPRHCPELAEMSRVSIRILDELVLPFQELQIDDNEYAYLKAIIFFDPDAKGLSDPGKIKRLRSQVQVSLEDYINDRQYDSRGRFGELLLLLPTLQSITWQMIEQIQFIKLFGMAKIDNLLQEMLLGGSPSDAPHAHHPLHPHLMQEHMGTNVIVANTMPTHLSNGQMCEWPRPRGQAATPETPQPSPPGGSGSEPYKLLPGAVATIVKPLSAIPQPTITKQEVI

[6] = molecular target: T2, ATP-dependent translocase ABCB1 (Homo sapiens, UniProt P08183); test: inhibition of BCRP-mediated JC-1 efflux – Ig-MXP3 cells, flow cytometry, set 2, dose response (AID 504566); format: functional; details: read-out: EC50_MICROM_;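 also: flow cytometry median green fluorescence of retained JC-1 dye; potency of efflux pump inhibition measured as rising substrate retention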
T2 sequence (P08183 whole entry): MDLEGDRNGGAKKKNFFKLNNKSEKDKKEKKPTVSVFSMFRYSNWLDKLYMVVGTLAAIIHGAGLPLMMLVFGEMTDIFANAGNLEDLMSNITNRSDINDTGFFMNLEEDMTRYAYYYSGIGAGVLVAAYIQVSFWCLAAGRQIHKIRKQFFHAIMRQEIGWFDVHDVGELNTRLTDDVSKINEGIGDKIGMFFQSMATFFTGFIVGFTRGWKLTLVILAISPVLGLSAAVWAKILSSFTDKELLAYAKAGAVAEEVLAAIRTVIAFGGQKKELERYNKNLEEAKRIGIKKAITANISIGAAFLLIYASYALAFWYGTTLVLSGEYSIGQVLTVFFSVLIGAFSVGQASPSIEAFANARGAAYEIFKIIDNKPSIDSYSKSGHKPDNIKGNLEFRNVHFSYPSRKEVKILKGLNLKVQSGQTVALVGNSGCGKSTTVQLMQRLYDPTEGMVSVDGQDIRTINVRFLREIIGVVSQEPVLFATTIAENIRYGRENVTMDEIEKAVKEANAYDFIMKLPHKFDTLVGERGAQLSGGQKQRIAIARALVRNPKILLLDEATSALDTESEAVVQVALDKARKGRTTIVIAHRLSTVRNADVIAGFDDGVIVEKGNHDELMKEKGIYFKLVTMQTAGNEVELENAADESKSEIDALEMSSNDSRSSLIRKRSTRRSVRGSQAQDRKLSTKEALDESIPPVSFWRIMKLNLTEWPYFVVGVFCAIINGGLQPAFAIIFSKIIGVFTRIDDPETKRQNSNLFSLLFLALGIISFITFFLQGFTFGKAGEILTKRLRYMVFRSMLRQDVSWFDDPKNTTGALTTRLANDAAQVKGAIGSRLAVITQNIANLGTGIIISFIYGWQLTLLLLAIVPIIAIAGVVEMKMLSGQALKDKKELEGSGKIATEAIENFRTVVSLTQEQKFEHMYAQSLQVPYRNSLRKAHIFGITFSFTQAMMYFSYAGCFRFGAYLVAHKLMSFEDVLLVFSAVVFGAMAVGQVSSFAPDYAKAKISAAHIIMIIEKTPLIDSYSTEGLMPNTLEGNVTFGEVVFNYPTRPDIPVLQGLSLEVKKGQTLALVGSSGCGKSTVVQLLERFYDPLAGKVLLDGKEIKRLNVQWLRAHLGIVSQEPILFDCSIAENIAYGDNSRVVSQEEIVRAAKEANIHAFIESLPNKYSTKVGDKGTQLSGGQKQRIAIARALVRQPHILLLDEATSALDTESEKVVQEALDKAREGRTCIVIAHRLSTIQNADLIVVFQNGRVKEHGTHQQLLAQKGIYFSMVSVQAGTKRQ

[7] = molecular target: T2, ATP-dependent translocase ABCB1; test: P-gp JC-1 efflux blockade concentration-response – Jurkat-DNR cells, flow cytometry, set 2, dose response (AID 504569); format: functional; details: read-out: EC50_MICROM_;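 also: potency of pump inhibitors that raise cellular JC-1 green fluorescence up to the nicardipine level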
[8] = molecular target: Adenosylmethionine-8-amino-7-oxononanoate aminotransferase (Mycobacterium tuberculosis, UniProt P9WQ81); test: Mycobacterium tuberculosis BioA enzyme inhibitor Measured in Biochemical System Using Plate Reader - 2163-02_Inhibitor_Dose_CherryPick_Activity.; format: functional, Mycobacterium tuberculosis UT205
Adenosylmethionine-8-amino-7-oxononanoate aminotransferase, sequence (P9WQ81 whole entry): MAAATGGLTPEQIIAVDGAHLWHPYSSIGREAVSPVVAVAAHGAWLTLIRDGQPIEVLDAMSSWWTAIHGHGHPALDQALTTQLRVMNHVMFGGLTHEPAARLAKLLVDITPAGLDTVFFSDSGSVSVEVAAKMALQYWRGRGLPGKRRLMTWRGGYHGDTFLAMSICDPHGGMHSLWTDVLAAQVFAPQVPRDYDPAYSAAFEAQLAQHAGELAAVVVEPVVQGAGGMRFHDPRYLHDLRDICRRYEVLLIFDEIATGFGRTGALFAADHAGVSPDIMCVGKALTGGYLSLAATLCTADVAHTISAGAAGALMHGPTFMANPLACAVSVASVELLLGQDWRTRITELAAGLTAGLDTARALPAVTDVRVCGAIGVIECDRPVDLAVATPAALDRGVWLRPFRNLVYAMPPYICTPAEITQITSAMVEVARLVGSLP

[9] = molecular target: T3, Corticotropin-releasing factor receptor 2/Corticotropin-releasing factor-binding protein (Homo sapiens, UniProt P24387+Q13324); test: Dose Response confirmation of uHTS hits for small molecule antagonists of the CRF-binding protein and CRF-R2 receptor complex.; format: functional; details: read-out: IC50_Mean
T3 sequence (Q13324 whole entry): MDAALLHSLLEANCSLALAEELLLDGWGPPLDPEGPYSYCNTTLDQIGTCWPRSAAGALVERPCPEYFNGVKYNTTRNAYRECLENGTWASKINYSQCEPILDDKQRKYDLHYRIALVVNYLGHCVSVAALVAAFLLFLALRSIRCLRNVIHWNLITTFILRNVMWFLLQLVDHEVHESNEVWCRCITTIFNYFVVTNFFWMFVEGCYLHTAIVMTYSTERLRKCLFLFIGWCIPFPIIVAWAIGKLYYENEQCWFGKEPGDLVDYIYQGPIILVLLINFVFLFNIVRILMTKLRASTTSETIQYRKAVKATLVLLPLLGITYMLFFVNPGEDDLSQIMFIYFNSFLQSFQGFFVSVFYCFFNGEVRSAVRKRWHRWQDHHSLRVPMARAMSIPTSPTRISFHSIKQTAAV
T3 sequence (P24387 whole entry): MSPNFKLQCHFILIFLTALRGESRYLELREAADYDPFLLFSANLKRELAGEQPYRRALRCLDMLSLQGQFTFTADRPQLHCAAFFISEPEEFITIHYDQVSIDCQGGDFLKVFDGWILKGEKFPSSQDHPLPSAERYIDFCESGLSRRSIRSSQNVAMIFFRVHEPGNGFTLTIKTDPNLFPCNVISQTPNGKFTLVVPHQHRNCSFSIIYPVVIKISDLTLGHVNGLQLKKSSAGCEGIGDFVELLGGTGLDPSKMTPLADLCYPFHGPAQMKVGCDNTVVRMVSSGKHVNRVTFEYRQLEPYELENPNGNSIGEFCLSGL

[10] = molecular target: T3, Corticotropin-releasing factor receptor 2/Corticotropin-releasing factor-binding protein; test: activators of CRF receptor 2 with binding protein – uHTS hits, confirmation (AID 602473); format: functional; details: read-out: EC50_Mean
[11] = blockers of CRF-binding protein–CRF-R2 complex – cell-based, uHTS hits, 384-well, dose response (AID 651639); format: functional, Homo sapiens; details: read-out: IC50_Mean
[12] = molecular target: T4, High affinity choline transporter 1 (Homo sapiens, UniProt Q9GZV3); test: human choline transporter blockers, potency – cell-based, 5-point CRC, membrane potential dye, dose response (AID 504840); format: functional
T4 sequence (Q9GZV3 whole entry): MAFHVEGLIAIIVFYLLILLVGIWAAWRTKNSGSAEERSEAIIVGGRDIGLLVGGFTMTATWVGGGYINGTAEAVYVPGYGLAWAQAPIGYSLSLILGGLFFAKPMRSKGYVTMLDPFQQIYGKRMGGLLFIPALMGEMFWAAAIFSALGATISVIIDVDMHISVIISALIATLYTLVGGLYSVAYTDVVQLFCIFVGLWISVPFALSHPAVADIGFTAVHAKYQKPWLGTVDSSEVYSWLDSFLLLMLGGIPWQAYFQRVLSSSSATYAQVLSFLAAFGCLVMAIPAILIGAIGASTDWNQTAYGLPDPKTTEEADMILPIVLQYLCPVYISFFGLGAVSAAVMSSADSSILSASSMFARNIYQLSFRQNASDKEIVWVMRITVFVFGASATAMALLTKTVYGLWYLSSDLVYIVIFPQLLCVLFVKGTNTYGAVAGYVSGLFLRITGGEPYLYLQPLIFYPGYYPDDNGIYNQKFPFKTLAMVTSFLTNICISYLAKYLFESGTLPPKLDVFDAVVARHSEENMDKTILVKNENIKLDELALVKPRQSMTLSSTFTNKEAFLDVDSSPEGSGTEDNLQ

[13] = molecular target: T4, High affinity choline transporter 1; test: human choline transporter blockers, potency – cell-based, 10-point CRC, membrane potential dye, dose response (AID 588401); format: functional;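 also: membrane potential dye fluorescence of choline-evoked depolarization via CHT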
[14] = blockers of CAL PDZ–TMR peptide complex – biochemical, fluorescence polarization, untagged CAL PDZ, cherry-pick, set 2, dose response (AID 602254); format: functional
[15] = molecular target: T5, Carboxy-terminal domain RNA polymerase II polypeptide A small phosphatase 1 (Homo sapiens, UniProt Q9GZU7); test: CTDSP1 inhibitors, concentration-response, biochemical, absorbance readout, ultra-high-throughput screen actives (AID 540297); format: functional
T5 sequence (Q9GZU7 whole entry): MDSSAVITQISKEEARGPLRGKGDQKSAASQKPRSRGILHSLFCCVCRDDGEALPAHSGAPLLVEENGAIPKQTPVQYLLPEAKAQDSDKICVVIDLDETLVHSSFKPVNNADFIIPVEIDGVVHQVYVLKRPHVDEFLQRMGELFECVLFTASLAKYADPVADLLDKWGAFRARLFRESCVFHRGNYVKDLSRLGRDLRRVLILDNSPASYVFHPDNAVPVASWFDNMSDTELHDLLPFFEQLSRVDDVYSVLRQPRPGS

[16] = molecular target: Tyrosine-protein phosphatase non-receptor type 11 (Homo sapiens, UniProt Q06124); test: PTPN11 enzyme inhibitors – biochemical, selectivity assay for STEP inhibitor project, dose response (AID 602367); format: functional; details: read-out: IC50_Mean
Tyrosine-protein phosphatase non-receptor type 11, sequence (Q06124 whole entry): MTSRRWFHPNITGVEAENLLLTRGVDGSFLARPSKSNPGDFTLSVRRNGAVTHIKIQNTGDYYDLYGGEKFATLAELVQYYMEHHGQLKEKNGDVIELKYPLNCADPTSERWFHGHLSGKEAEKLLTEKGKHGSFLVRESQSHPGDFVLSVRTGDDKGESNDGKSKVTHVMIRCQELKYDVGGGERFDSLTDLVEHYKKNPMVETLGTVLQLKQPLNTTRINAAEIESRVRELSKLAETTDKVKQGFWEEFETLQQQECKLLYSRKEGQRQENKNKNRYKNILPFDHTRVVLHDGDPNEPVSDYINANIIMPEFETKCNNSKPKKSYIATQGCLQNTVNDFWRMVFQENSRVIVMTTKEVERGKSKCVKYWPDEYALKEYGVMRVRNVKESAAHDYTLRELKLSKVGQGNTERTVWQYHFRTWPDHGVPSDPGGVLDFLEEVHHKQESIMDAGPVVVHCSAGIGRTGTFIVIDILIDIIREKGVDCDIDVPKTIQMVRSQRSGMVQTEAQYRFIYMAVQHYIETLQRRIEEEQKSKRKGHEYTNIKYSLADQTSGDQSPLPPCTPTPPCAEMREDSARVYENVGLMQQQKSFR

[17] = molecular target: Tyrosine-protein phosphatase non-receptor type 5 (Homo sapiens, UniProt P54829); test: PTPN5 enzyme inhibition – biochemical, fluorescence intensity, uHTS hits, confirmation (AID 602372); format: functional; details: read-out: IC50_Mean
Tyrosine-protein phosphatase non-receptor type 5, sequence (P54829 whole entry): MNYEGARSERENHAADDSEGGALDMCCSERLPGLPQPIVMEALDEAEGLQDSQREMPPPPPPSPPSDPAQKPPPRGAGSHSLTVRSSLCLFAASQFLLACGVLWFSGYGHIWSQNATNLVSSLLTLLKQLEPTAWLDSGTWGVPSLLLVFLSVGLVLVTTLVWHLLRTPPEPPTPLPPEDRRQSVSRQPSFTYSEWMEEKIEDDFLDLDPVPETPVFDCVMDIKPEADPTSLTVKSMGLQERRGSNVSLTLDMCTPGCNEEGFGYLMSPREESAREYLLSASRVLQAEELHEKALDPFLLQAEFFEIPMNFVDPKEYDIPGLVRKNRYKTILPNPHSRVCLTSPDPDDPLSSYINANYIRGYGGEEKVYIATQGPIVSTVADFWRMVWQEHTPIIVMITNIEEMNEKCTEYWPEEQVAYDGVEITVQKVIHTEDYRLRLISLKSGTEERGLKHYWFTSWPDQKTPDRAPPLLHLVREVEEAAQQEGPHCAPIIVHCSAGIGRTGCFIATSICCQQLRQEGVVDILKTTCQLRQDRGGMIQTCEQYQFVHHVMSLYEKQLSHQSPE

[18] = molecular target: Dual specificity protein phosphatase 3 (Homo sapiens, UniProt P51452); test: VHR phosphatase inhibition, dose response, selectivity assay for STEP inhibitor project, biochemical (AID 602374); format: functional; details: read-out: IC50_Mean
Dual specificity protein phosphatase 3, sequence (P51452 whole entry): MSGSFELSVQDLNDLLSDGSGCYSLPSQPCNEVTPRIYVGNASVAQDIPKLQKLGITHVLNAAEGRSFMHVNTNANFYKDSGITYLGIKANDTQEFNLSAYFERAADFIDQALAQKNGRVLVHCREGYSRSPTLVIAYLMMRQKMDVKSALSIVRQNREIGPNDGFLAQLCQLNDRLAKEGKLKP

[19] = molecular target: T6, Low molecular weight phosphotyrosine protein phosphatase (Homo sapiens, UniProt P24666); format: functional; details: read-out: IC50_Mean
T6 sequence (P24666 whole entry): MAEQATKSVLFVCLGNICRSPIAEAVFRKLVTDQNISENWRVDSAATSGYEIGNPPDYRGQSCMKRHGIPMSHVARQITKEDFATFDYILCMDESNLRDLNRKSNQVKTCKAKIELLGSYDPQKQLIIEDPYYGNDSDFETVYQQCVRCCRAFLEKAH

[20] = molecular target: T6, Low molecular weight phosphotyrosine protein phosphatase; format: functional; details: read-out: IC50_Mean; remark: listed apart in the source
[21] = molecular target: T7, Tyrosine-protein phosphatase non-receptor type 22 (Homo sapiens, UniProt Q9Y2R2); test: PTPN22 enzyme inhibitors – biochemical, fluorescence, LYP catalytic domain, selectivity assay for LMPTP inhibitor project, dose response (AID 652006); format: functional; details: read-out: IC50_Mean
T7 sequence (Q9Y2R2 whole entry): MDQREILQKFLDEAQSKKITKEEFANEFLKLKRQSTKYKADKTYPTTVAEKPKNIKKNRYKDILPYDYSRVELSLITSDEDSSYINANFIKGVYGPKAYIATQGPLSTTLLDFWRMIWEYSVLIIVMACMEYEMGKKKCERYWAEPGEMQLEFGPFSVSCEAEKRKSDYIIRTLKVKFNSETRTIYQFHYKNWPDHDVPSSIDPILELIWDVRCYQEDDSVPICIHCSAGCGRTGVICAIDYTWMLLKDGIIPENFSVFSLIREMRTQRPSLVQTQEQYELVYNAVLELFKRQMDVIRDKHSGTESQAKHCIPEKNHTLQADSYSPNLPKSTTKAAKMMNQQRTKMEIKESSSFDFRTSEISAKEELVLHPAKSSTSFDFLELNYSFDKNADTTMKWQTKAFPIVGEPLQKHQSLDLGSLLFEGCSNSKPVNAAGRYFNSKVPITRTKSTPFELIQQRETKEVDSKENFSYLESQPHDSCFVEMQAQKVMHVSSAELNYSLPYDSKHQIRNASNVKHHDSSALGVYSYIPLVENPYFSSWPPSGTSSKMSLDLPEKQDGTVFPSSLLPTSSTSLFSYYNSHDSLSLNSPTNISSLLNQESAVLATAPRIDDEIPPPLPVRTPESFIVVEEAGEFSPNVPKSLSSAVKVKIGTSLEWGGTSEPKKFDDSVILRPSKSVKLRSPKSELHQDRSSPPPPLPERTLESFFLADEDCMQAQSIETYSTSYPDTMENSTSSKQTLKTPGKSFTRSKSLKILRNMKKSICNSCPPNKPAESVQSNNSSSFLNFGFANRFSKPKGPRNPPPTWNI

[22] = decrease of insulin promoter-GFP reporter – imaging, high-content screening, mouse beta cells (AID 1628); format: functional; details: MIN6
[23] = MIN6 cell viability loss – mouse insulinoma, cytotoxicity control, dose response (AID 2122); format: functional;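 also: confirmatory high-throughput counterscreen run to flag cytotoxic compounds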
[24] = molecular target: Ras and Rab interactor 1/Tyrosine-protein kinase ABL1 (Homo sapiens, UniProt P00519+Q13671); format: functional;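 also: biochemical TR-FRET dose-response test measuring inhibition of binding between Rin1 and Abl proteins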
[25] = molecular target: Nuclear receptor subfamily 5 group A member 2 (Homo sapiens, UniProt O00482); format: functional, cell-based;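 also: HEK293T cells transfected with LRH-1 and a StAR promoter luciferase reporter; potency for inhibitors that lower LRH-1 driven reporter light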
Nuclear receptor subfamily 5 group A member 2, sequence (O00482 whole entry): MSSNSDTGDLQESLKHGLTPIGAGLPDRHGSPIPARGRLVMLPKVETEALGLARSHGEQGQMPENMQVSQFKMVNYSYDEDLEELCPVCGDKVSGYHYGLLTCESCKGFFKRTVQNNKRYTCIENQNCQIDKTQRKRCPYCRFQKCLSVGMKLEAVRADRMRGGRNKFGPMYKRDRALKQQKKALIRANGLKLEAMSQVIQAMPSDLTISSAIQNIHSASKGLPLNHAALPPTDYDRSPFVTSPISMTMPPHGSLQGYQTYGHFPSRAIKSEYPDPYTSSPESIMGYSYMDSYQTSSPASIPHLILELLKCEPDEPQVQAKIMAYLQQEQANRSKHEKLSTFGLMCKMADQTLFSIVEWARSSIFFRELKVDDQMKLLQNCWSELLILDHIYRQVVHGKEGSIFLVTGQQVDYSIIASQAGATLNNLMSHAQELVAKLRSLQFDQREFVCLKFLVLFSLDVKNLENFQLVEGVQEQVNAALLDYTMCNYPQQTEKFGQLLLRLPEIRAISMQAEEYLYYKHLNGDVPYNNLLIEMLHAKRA

[26] = molecular target: Steroidogenic factor 1 (Homo sapiens, UniProt Q13285); test: Counterscreen for inverse agonists of the liver receptor homolog-1 (LRH-1; NR5A2): Luminescence-based cell-based high throughput dose response assay to identify inverse agonists of the Steroidogenic Factor 1 Nuclear Receptor (SF1; NR5A1).; format: functional
Steroidogenic factor 1, sequence (Q13285 whole entry): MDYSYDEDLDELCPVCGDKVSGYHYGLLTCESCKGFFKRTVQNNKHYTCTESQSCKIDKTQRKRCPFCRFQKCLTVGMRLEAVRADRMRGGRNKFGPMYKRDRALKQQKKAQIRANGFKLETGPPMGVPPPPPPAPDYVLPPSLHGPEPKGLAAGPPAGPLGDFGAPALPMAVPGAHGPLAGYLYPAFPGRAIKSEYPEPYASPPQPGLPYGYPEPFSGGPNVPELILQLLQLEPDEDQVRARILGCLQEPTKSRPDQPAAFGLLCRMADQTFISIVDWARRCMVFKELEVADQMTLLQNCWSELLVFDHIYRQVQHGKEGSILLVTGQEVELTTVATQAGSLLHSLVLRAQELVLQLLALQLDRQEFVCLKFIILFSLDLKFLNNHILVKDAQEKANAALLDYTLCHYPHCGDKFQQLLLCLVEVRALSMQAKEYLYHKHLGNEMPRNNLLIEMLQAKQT

[27] = nonselective StAR promoter luciferase inhibitors – cell-based, luminescence, luciferase reporter, counter-screen for LRH-1 inverse agonist project, dose response (AID 651969); format: functional

With CN1CC[C@@]2(C)c3cc(O)ccc3N(C)[C@@H]12 the IC50 [1] was 8.51 µM (active), the IC50 [2] was 3.53 µM (active) and the AC50 [3] was 97.2 µM (active).
With C/C=C/c1ccc([C@H]2[C@@H](CO)N(Cc3ccccn3)[C@@H]2CNC(C)=O)cc1 the AC50 [4] was 93.3 µM (active).
For CC(C)(C)NC(=O)C(c1ccc(C(F)(F)F)cc1)n1c(=O)c(-c2ccco2)nc2ccccc21 (stereo not drawn), the IC50 [5] was 1.81 µM (active).
For O=C(c1ccccc1)N1CCN(c2cc(Cl)nc3cc(-c4cccc(Cl)c4)nn23)CC1, the EC50 [6] was 1.8 µM (active) and the EC50 [7] was 3.98 µM (active).
For CC(=O)c1ccc(C(=O)NC2CCCN(Cc3ccccc3F)C2)s1 (stereo not drawn), the AC50 [8] was 4.26 µM (active).
In the case of O=C(Cc1ccccc1)NCC(=O)OC(c1ccccc1)c1ccccc1, the IC50 [9] is reported as 18.9 µM (active), the EC50 [10] is reported as > 53 µM (inactive) and the IC50 [11] is reported as > 20 µM (inactive).
For CCn1c(SCCC(C)C)nnc1-c1c[nH]c2ccccc12, the IC50 [12] was 0.955 µM (active) and the IC50 [13] was 2.41 µM (active).
With COc1cc(NC(=O)C2CCCN(S(=O)(=O)c3cccc4nsnc34)C2)cc(OC)c1 (stereo not drawn) the AC50 [14] was 118 µM (active).
For O=C(N/N=C/c1ccc(OC(=O)c2cccs2)cc1)c1cccc(F)c1, the IC50 [15] was 3.55 µM (active), the IC50 [16] was 1.37 µM (active) and the IC50 [17] was 9.39 µM (active). The IC50 [18] was 2.45 µM (active), the IC50 [19] was 17.2 µM (active) and the IC50 [20] was 11.2 µM (active). For the same compound, the IC50 [21] was 24.9 µM (inactive).
With CCOC(=O)N1CCN(C(=O)C2CCN(c3ncnc4c3sc3cccc(F)c34)CC2)CC1 the IC50 [22] was 1.49 µM (active), the IC50 [23] was 1.05 µM (active) and the IC50 [12] was 13.8 µM (active). The IC50 [24] was 14.2 µM (inactive).
In the case of Cc1ccc(NC(=O)COC(=O)c2cc(=O)c3ccccc3o2)c(Br)c1, the IC50 [25] is reported as 3.98 µM (active), the IC50 [26] is reported as 24.3 µM (inactive) and the IC50 [27] is reported as 35.9 µM (inactive).
